This is an account of results in patent US20260265265A1, “NOVEL BENZIMIDAZOLONE DERIVATIVE COMPOUND AS AUTOTAXIN INHIBITOR” (LG CHEM, LTD., priority 2023, published 2026).

The target of the assay is T1, Recombinant Human ENPP-2/Autotaxin (Homo sapiens, UniProt Q13822).
T1 construct: purchased R&D systems 5255-EN
In words: LysoPLD activity measurement (autotaxin enzyme inhibition, choline release, TOOS reagent). The format is biochemical. The settings on record: LysoPLD inhibitory activity; substrate 14:0 LysoPC; absorbance at 555 nm. The essentials: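 Autotaxin lysoPLD activity was read as choline released from 14:0 LysoPC, detected by TOOS reagent absorbance. Compound was preincubated 30 min, then substrate diluted to 300 μM was added and the reaction ran 90 minutes at 37° C. Controls contained 1% DMSO.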
In the case of `O=C(O)c1cc(F)cc(C2(n3c(=O)n(-c4ccc(N5CCC(F)(F)CC5)cc4)c4cc(Cl)ccc43)CC2)c1` [Example 197, 3-(1-(5-chloro-3-(4-(4,4-difluoropiperidin-1-yl)phenyl)-2-oxo-2,3-dihydro-1H-benzo[d]imidazol-1-yl)cyclopropyl)-5-fluorobenzoic acid], the IC50 was less than 10 nM.
With `O=C(O)c1cc(Cn2c(=O)n(-c3ccc(N4CCOCC4)cc3)c3c(F)c(Cl)ccc32)on1` [Example 198, 5-((5-chloro-4-fluoro-3-(4-morpholinophenyl)-2-oxo-2,3-dihydro-1H-benzo[d]imidazol-1-yl)methyl)isoxazole-3-carboxylic acid] the figure was 100 to 1000 nM; with `O=C(O)c1coc(Cn2c(=O)n(-c3ccc(N4CCOCC4)cc3)c3c(F)c(Cl)ccc32)n1` [Example 199, 2-((5-chloro-4-fluoro-3-(4-morpholinophenyl)-2-oxo-2,3-dihydro-1H-benzo[d]imidazol-1-yl)methyl)oxazole-4-carboxylic acid], 100 to 1000 nM; with `O=C(O)c1cc(Cn2c(=O)n(-c3ccc(N4CCOCC4)cc3)c3c(F)c(Cl)ccc32)cc(F)c1F` [Example 202, 5-((5-chloro-4-fluoro-3-(4-morpholinophenyl)-2-oxo-2,3-dihydro-1H-benzo[d]imidazol-1-yl)methyl)-2,3-difluorobenzoic acid], 10 to 100 nM.
With `O=C(O)c1cc(Cn2c(=O)n(-c3ccc(N4CCOCC4)cc3)c3cc(Cl)ccc32)cc(F)c1F` [Example 203, 5-((5-chloro-3-(4-morpholinophenyl)-2-oxo-2,3-dihydro-1H-benzo[d]imidazol-1-yl)methyl)-2,3-difluorobenzoic acid] the figure was 10 to 100 nM.
In the case of `O=C(O)c1c(F)ccc(Cn2c(=O)n(-c3ccc(N4CCOCC4)cc3)c3c(F)c(Cl)ccc32)c1F` [Example 204, 3-((5-chloro-4-fluoro-3-(4-morpholinophenyl)-2-oxo-2,3-dihydro-1H-benzo[d]imidazol-1-yl)methyl)-2,6-difluorobenzoic acid] it was 10 to 100 nM; in that of `O=C(O)c1c(F)ccc(Cn2c(=O)n(-c3ccc(N4CCOCC4)cc3)c3cc(Cl)ccc32)c1F` [Example 205, 3-((5-chloro-3-(4-morpholinophenyl)-2-oxo-2,3-dihydro-1H-benzo[d]imidazol-1-yl)methyl)-2,6-difluorobenzoic acid], 10 to 100 nM; in that of `CN(C)c1ccc(-n2c(=O)n(C3(c4cccc(C(=O)O)c4)CC3)c3ccc(C(F)(F)F)cc32)cc1` [Example 206, 3-(1-(3-(4-(dimethylamino)phenyl)-2-oxo-5-(trifluoromethyl)-2,3-dihydro-1H-benzo[d]imidazol-1-yl)cyclopropyl)benzoic acid], 10 to 100 nM.
For the molecule `O=C(O)c1cccc(C2(n3c(=O)n(-c4ccc(N5CCOCC5)cc4)c4cc(C(F)(F)F)ccc43)CC2)c1` [Example 207, 3-(1-(3-(4-morpholinophenyl)-2-oxo-5-(trifluoromethyl)-2,3-dihydro-1H-benzo[d]imidazol-1-yl)cyclopropyl)benzoic acid], the concentration for half-maximal inhibition (IC50) is less than 10 nM.
`CN(C)c1ccc(-n2c(=O)n(C3(c4cccc(C(=O)O)c4)CC3)c3ccc(OC(F)(F)F)cc32)cc1` [Example 208, 3-(1-(3-(4-(dimethylamino)phenyl)-2-oxo-5-(trifluoromethoxy)-2,3-dihydro-1H-benzo[d]imidazol-1-yl)cyclopropyl)benzoic acid]: the IC50 was in the range of 10 to 100 nM.
In the case of `O=C(O)c1cccc(C2(n3c(=O)n(-c4ccc(N5CCOCC5)cc4)c4cc(OC(F)(F)F)ccc43)CC2)c1` [Example 209, 3-(1-(3-(4-morpholinophenyl)-2-oxo-5-(trifluoromethoxy)-2,3-dihydro-1H-benzo[d]imidazol-1-yl)cyclopropyl)benzoic acid] it was 10 to 100 nM; in that of `CN(C)S(=O)(=O)c1ccc(-n2c(=O)n(C3(c4cccc(C(=O)O)c4)CC3)c3ccc(Cl)cc32)cc1` [Example 210, 3-(1-(5-chloro-3-(4-(N,N-dimethylsulfamoyl)phenyl)-2-oxo-2,3-dihydro-1H-benzo[d]imidazol-1-yl)cyclopropyl)benzoic acid], less than 10 nM; in that of `O=C(O)c1cccc(C2(n3c(=O)n(-c4ccc(S(=O)(=O)NC5CC5)cc4)c4cc(Cl)ccc43)CC2)c1` [Example 211, 3-(1-(5-chloro-3-(4-(N-cyclopropylsulfamoyl)phenyl)-2-oxo-2,3-dihydro-1H-benzo[d]imidazol-1-yl)cyclopropyl)benzoic acid], less than 10 nM.
With `O=C(O)c1cccc(C2(n3c(=O)n(-c4ccc(S(=O)(=O)N5CCOCC5)cc4)c4cc(Cl)ccc43)CC2)c1` [Example 212, 3-(1-(5-chloro-3-(4-(morpholinosulfonyl)phenyl)-2-oxo-2,3-dihydro-1H-benzo[d]imidazol-1-yl)cyclopropyl)benzoic acid] the figure was less than 10 nM; with `O=C(O)c1cccc(C2(n3c(=O)n(-c4ccc(S(=O)(=O)NCC5CCC5)cc4)c4cc(Cl)ccc43)CC2)c1` [Example 213, 3-(1-(5-chloro-3-(4-(N-(cyclobutylmethyl)sulfamoyl)phenyl)-2-oxo-2,3-dihydro-1H-benzo[d]imidazol-1-yl)cyclopropyl)benzoic acid], 10 to 100 nM.
With `O=C(O)c1cccc(C2(n3c(=O)n(-c4ccc(S(=O)(=O)N5CCCCC5)cc4)c4cc(Cl)ccc43)CC2)c1` [Example 214] the figure was less than 10 nM; with `O=C(O)c1cccc(C2(n3c(=O)n(-c4ccc(S(=O)(=O)N5CCCC5)cc4)c4cc(Cl)ccc43)CC2)c1` [Example 215, 3-(1-(5-chloro-2-oxo-3-(4-(pyrrolidin-1-ylsulfonyl)phenyl)-2,3-dihydro-1H-benzo[d]imidazol-1-yl)cyclopropyl)benzoic acid], less than 10 nM; with `CC(C)(O)Cc1ccc(-n2c(=O)n(C3(c4cccc(C(=O)O)c4)CC3)c3ccc(Cl)cc32)cc1` [Example 216, 3-(1-(5-chloro-3-(4-(2-hydroxy-2-methylpropyl)phenyl)-2-oxo-2,3-dihydro-1H-benzo[d]imidazol-1-yl)cyclopropyl)benzoic acid], less than 10 nM.
As to `CC(C)(F)Cc1ccc(-n2c(=O)n(C3(c4cccc(C(=O)O)c4)CC3)c3ccc(Cl)cc32)cc1` [Example 217, 3-(1-(5-chloro-3-(4-(2-fluoro-2-methylpropyl)phenyl)-2-oxo-2,3-dihydro-1H-benzo[d]imidazol-1-yl)cyclopropyl)benzoic acid], the IC50 lay in the range of 10 to 100 nM.
For `CC(C)(CO)c1ccc(-n2c(=O)n(C3(c4cccc(C(=O)O)c4)CC3)c3ccc(Cl)cc32)cc1` [Example 218, 3-(1-(5-chloro-3-(4-(1-hydroxy-2-methylpropan-2-yl)phenyl)-2-oxo-2,3-dihydro-1H-benzo[d]imidazol-1-yl)cyclopropyl)benzoic acid], the concentration for half-maximal inhibition (IC50) is less than 10 nM.
Regarding `CC(C)(CF)c1ccc(-n2c(=O)n(C3(c4cccc(C(=O)O)c4)CC3)c3ccc(Cl)cc32)cc1` [Example 219, 3-(1-(5-chloro-3-(4-(1-fluoro-2-methylpropan-2-yl)phenyl)-2-oxo-2,3-dihydro-1H-benzo[d]imidazol-1-yl)cyclopropyl)benzoic acid], the IC50 is less than 10 nM.
In the case of `O=C(O)c1cccc(C2(n3c(=O)n(-c4ccc(C5CCOCC5)cc4)c4cc(Cl)cnc43)CC2)c1` [Example 220, 3-(1-(6-chloro-2-oxo-1-(4-(tetrahydro-2H-pyran-4-yl)phenyl)-1,2-dihydro-3H-imidazo[4,5-b]pyridin-3-yl)cyclopropyl)benzoic acid], the IC50 is less than 10 nM.
